Experimental data as given in the supplement of paper PMC10307832.

Legend:
Test in all cases: relative viability (nuclei count vs DMSO), 5 days (fraction); higher = more cells survive
JZL-184 + OSI-027 = compound: C1CN(CCC1C(C2=CC3=C(C=C2)OCO3)(C4=CC5=C(C=C4)OCO5)O)C(=O)OC6=CC=C(C=C6)[N+](=O)[O-] [JZL-184] + COc1cccc2cc(-c3nc([C@H]4CC[C@H](C(=O)O)CC4)n4ncnc(N)c34)[nH]c12 [OSI-027] (partner 0.5 µM)
Summary of the method: (§1)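 A single step with final 0.05% Triton X-100, 1% formaldehyde and 1 ug/ml Hoechst fixed the cells and stained nuclei 5 days after treatment. Lung cancer cell lines in 1536-well plates had been treated by pin tool the day after seeding with one drug alone or a fixed anchor-drug dose plus five library-drug doses (not always all listed) in √10 steps, and nuclei were counted on 4× images. Relative viability is the ratio of nuclei in treated wells to nuclei in vehicle wells, taken as the median of duplicate plates.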

JZL-184 + Olaparib = compound: C1CN(CCC1C(C2=CC3=C(C=C2)OCO3)(C4=CC5=C(C=C4)OCO5)O)C(=O)OC6=CC=C(C=C6)[N+](=O)[O-] [JZL-184] + O=C(c1cc(Cc2n[nH]c(=O)c3ccccc23)ccc1F)N1CCN(C(=O)C2CC2)CC1 [Olaparib] (partner 8 µM)
Summary of the method: as §1

JZL-184 + Tozasertib = compound: C1CN(CCC1C(C2=CC3=C(C=C2)OCO3)(C4=CC5=C(C=C4)OCO5)O)C(=O)OC6=CC=C(C=C6)[N+](=O)[O-] [JZL-184] + Cc1cc(Nc2cc(N3CCN(C)CC3)nc(Sc3ccc(NC(=O)C4CC4)cc3)n2)n[nH]1 [Tozasertib] (partner 0.1 µM)
Summary of the method: as §1

JZL-184 + Trametinib = compound: C1CN(CCC1C(C2=CC3=C(C=C2)OCO3)(C4=CC5=C(C=C4)OCO5)O)C(=O)OC6=CC=C(C=C6)[N+](=O)[O-] [JZL-184] + CC(=O)Nc1cccc(-n2c(=O)n(C3CC3)c(=O)c3c(Nc4ccc(I)cc4F)n(C)c(=O)c(C)c32)c1 [Trametinib] (partner 0.02 µM)
Summary of the method: as §1

JZL-184 + Navitoclax = compound: C1CN(CCC1C(C2=CC3=C(C=C2)OCO3)(C4=CC5=C(C=C4)OCO5)O)C(=O)OC6=CC=C(C=C6)[N+](=O)[O-] [JZL-184] + CC1(C)CCC(c2ccc(Cl)cc2)=C(CN2CCN(c3ccc(C(=O)NS(=O)(=O)c4ccc(N[C@H](CCN5CCOCC5)CSc5ccccc5)c(S(=O)(=O)C(F)(F)F)c4)cc3)CC2)C1 [Navitoclax] (partner 0.5 µM)
Summary of the method: as §1

Cell Line | relative viability (JZL-184 + OSI-027; first compound 0.04 µM) | relative viability (JZL-184 + OSI-027; first compound 0.4 µM) | relative viability (JZL-184 + OSI-027; first compound 1.265 µM) | relative viability (JZL-184 + OSI-027; first compound 4 µM) | relative viability (JZL-184 + Olaparib; first compound 0.04 µM) | relative viability (JZL-184 + Olaparib; first compound 0.4 µM) | relative viability (JZL-184 + Olaparib; first compound 1.265 µM) | relative viability (JZL-184 + Olaparib; first compound 4 µM) | relative viability (JZL-184 + Tozasertib; first compound 0.04 µM) | relative viability (JZL-184 + Tozasertib; first compound 0.4 µM) | relative viability (JZL-184 + Tozasertib; first compound 1.265 µM) | relative viability (JZL-184 + Tozasertib; first compound 4 µM) | relative viability (JZL-184 + Trametinib; first compound 0.04 µM) | relative viability (JZL-184 + Trametinib; first compound 0.4 µM) | relative viability (JZL-184 + Trametinib; first compound 1.265 µM) | relative viability (JZL-184 + Trametinib; first compound 4 µM) | relative viability (JZL-184 + Navitoclax; first compound 0.04 µM) | relative viability (JZL-184 + Navitoclax; first compound 0.4 µM) | relative viability (JZL-184 + Navitoclax; first compound 1.265 µM) | relative viability (JZL-184 + Navitoclax; first compound 4 µM)
201T | 0.754 | 0.685 | 0.744 | 0.701 | 0.858 | 0.845 | 0.82 | 0.841 | 1.02 | 0.981 | 0.988 | 0.862 | 0.676 | 0.724 | 0.706 | 0.688 | 1.23 | 1.19 | 1.17 | 1.18
A549 | – | – | – | – | 0.31 | 0.288 | 0.382 | 0.367 | – | – | – | – | – | – | – | – | 1.18 | 1 | 1.24 | 1.23
A-427 | 0.469 | 0.435 | 0.479 | 0.474 | 0.807 | 0.739 | 0.77 | 0.732 | 0.194 | 0.186 | 0.264 | 0.239 | 0.757 | 0.75 | 0.821 | 0.684 | 1.02 | 0.879 | 0.962 | 0.992
ABC-1 | 0.644 | 0.441 | 0.667 | 0.448 | 0.821 | 0.814 | 0.842 | 0.829 | 0.195 | 0.202 | 0.174 | 0.164 | – | – | – | – | – | – | – | –
BEN | 0.289 | 0.254 | 0.324 | 0.296 | 1.15 | 1.01 | 1.24 | 1.03 | 0.513 | 0.536 | 0.506 | 0.456 | 0.967 | 1.06 | 1.07 | 1.04 | 0.0556 | 0.0635 | 0.0659 | 0.0756
CAL-12T | 0.897 | 0.648 | 0.673 | 0.614 | 0.836 | 0.701 | 0.786 | 0.777 | 0.336 | 0.269 | 0.336 | 0.228 | 0.341 | 0.356 | 0.352 | 0.341 | 1.33 | 1.1 | 1.15 | 1.15
COR-L23 | 0.964 | 0.783 | 0.806 | 0.64 | 0.379 | 0.365 | 0.315 | 0.4 | 0.197 | 0.181 | 0.215 | 0.143 | 0.774 | 0.516 | 0.684 | 0.54 | 1.13 | 0.87 | 1.05 | 0.968
COR-L 105 | 0.908 | 0.731 | 0.744 | 0.703 | 0.686 | 0.775 | 0.663 | 0.679 | 0.381 | 0.398 | 0.381 | 0.319 | 0.454 | 0.443 | 0.439 | 0.414 | 0.878 | 0.813 | 0.905 | 0.585
ChaGo-K-1 | 0.637 | 0.63 | 0.635 | 0.555 | 0.485 | 0.411 | 0.447 | 0.41 | 0.265 | 0.224 | 0.211 | 0.235 | 0.925 | 0.849 | 0.929 | 0.788 | 1.47 | 0.896 | 1.29 | 0.962
EKVX | 0.752 | 0.536 | 0.669 | 0.704 | 0.851 | 0.778 | 0.769 | 0.834 | 0.39 | 0.408 | 0.423 | 0.351 | 0.322 | 0.348 | 0.364 | 0.359 | 1 | 0.946 | 0.922 | 0.895
EMC-BAC-2 | 0.368 | 0.375 | 0.396 | 0.343 | 0.473 | 0.479 | 0.491 | 0.492 | 0.296 | 0.282 | 0.285 | 0.287 | 0.955 | 0.899 | 0.832 | 0.827 | 1.22 | 1.12 | 1.17 | 1.11
EPLC-272H | 0.311 | 0.259 | 0.35 | 0.351 | 0.68 | 0.613 | 0.805 | 0.778 | 0.59 | 0.277 | 0.31 | 0.198 | 0.288 | 0.32 | 0.272 | 0.23 | 1.12 | 1.11 | 1.2 | 1.25
H3255 | 0.563 | 0.52 | 0.557 | 0.589 | 0.614 | 0.574 | 0.587 | 0.481 | 0.613 | 0.65 | 0.747 | 0.623 | 0.71 | 0.581 | 0.684 | 0.549 | 0.589 | 0.492 | 0.678 | 0.522
HARA | 0.547 | 0.444 | 0.614 | 0.456 | 0.762 | – | 0.762 | 0.947 | 0.134 | 0.0806 | 0.107 | 0.108 | 0.678 | – | 0.652 | 0.696 | 1.19 | 1.06 | 1.15 | 1.14
HCC-15 | 0.727 | 0.635 | 0.742 | 0.677 | 0.725 | 0.685 | 0.771 | 0.736 | 0.521 | 0.415 | 0.407 | 0.331 | 0.384 | 0.353 | 0.413 | 0.431 | 0.754 | 0.704 | 0.759 | 0.703
HCC-44 | 0.628 | 0.366 | 0.689 | 0.471 | 1.04 | 0.98 | 0.97 | 0.928 | 1.27 | 0.805 | 1.26 | 0.983 | 1.04 | 1.07 | 1.04 | 1.01 | 1.02 | 0.953 | 0.954 | 0.876
